Test results from ChEMBL document CHEMBL5653596, “A novel small molecule met inhibitor induces apoptosis in cells transformed by the oncogenic TPR-MET tyrosine kinase” (Cancer Res, 2003).
Calls of active or inactive are those of the source. No cut-off for these calls is given here.

How the values were obtained:
BaF3 [1] = assay: Inhibition of cell growth in mouse BaF3 cells transfected with TEL-JAK2 genes at 1 uM measured after 18 hrs by 3-(4,5-dimethylthiazol-2-yl)-2,5-diphenyltetrazolium bromide assay; format: functional, cell-based
[2] = biological target: T1, Fibroblast growth factor receptor 1 (Homo sapiens, UniProt P11362); assay: Inhibition of glutathione S-transferase fused FGFR1 (unknown origin) catalytic activity infected in Sf9 cells using poly-Glu-Tyr (4:1) as substrate
Target sequence in this assay (P11362 whole entry, the tested form may be a part): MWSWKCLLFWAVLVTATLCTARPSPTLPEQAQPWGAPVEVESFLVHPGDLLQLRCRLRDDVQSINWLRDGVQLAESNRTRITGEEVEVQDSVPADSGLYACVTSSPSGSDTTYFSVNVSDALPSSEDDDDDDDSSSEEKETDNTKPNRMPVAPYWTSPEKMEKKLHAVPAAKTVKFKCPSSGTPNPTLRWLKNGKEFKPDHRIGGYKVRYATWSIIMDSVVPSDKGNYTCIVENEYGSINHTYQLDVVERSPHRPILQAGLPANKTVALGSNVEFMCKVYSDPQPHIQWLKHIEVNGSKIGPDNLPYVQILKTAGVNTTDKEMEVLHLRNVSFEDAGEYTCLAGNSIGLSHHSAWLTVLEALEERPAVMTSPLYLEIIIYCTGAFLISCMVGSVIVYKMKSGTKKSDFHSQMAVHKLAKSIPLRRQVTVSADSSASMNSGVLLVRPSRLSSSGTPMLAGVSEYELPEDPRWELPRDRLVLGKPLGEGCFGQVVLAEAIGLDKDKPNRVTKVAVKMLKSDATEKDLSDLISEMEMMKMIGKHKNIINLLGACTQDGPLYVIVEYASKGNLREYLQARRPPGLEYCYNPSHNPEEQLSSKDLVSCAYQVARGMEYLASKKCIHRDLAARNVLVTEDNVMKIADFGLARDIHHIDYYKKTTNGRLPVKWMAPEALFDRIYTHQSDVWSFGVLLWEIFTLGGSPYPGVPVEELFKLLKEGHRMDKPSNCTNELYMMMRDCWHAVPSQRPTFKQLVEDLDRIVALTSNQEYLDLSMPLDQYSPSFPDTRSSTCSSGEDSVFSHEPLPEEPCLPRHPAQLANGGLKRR

NCI-H69 = assay: Growth inhibition of human NCI-H69 cells in presence of HGF measured after 72 hrs by 3-(4,5 dimethylthiazol-2-yl)-2,5-diphenyltetrazolium bromide assay; format: functional, cell-based
[3] = biological target: T1, Fibroblast growth factor receptor 1; assay: Inhibition of glutathione S-transferase fused FGFR1 (unknown origin) catalytic activity infected in Sf9 cells using poly-Glu-Tyr (4:1) as substrate at 0.02 uM relative to control
BaF3 [4] = assay: Reduction in tyrosine phosphorylation of cellular proteins in mouse BaF3 cells transfected with TPR-MET genes by immunoblotting analysis; format: functional, cell-based; conditions: dose 0.2-5 µM
BaF3 [5] = assay: Inhibition of […] phosphorylation of AKT at […] in mouse BaF3 cells transfected with TPR-MET genes at 0.2 to 5 uM by immunoblotting analysis; format: cell-based; conditions: dose 0.2-5 µM
BaF3 [6] = assay: Induction of cell cycle arrest in mouse BaF3 cells transfected with TPR-MET genes assessed as cells accumulation at S phase at 0.2 uM by fluorescence-activated cell sorter analysis (reference value: 45.4%); format: functional
BaF3 [7] = assay: Inhibition of cell growth in mouse BaF3 cells transfected with BCR-ABL genes in presence of interleukin 3 at 1 uM measured after 3 days by 3-(4,5-dimethylthiazol-2-yl)-2,5-diphenyltetrazolium bromide assay; format: functional, cell-based; conditions: time 3.0 day
BaF3 [8] = assay: Inhibition of cell growth in mouse BaF3 cells transfected with TEL-PDGFbetaR genes at 1 uM measured after 18 hrs by 3-(4,5-dimethylthiazol-2-yl)-2,5-diphenyltetrazolium bromide assay; format: functional, cell-based
[9] = biological target: Hepatocyte growth factor receptor (Mus musculus) (UniProt P16056); assay: Inhibition of Met autophosphorylation at Tyr496 in mouse BaF3 cells at 5 uM by immunoblotting analysis; format: cell-based
[10] = biological target: Platelet-derived growth factor receptor beta (Homo sapiens, UniProt P09619); assay: Inhibition of glutathione S-transferase fused PDGFbetaR (unknown origin) catalytic activity infected in Sf9 cells using poly-Glu-Tyr (4:1) as substrate
BaF3 [11] = assay: Inhibition of Serine phosphorylation of AKT at Ser473 in mouse BaF3 cells transfected with TPR-MET genes at 0.2 to 5 uM by immunoblotting analysis; format: cell-based; conditions: dose 0.2-5 µM
BaF3 [12] = assay: Inhibition of migration of mouse BaF3 cells at 5 uM measured after 4 hrs by spontaneous transwell migration assay relative to control; format: functional
BaF3 [13] = assay: Induction of apoptosis in mouse BaF3 cells transfected with TPR-MET genes assessed as total apoptotic cells at 1 uM measured after 18 hrs by annexin V and propidium iodide staining based flow cytometry assay (reference value: 5%); format: functional
Angiopoietin-1 receptor = Angiopoietin-1 receptor (Homo sapiens, UniProt Q02763); assay: Inhibition of glutathione S-transferase fused Tie2 (unknown origin) catalytic activity infected in Sf9 cells using poly-Glu-Tyr (4:1) as substrate
BaF3 [14] = assay: Inhibition of cell growth in mouse BaF3 cells transfected with TPR-MET genes by 3-(4,5-dimethylthiazol-2-yl)-2,5-diphenyltetrazolium bromide assay; format: functional, cell-based
BaF3 [15] = assay: Inhibition of migration of mouse BaF3 cells at 1 uM measured after 4 hrs by spontaneous transwell migration assay relative to control; format: functional
BaF3 [16] = assay: Inhibition of cell growth in mouse BaF3 cells transfected with TPR-MET genes in presence of interleukin 3 at 1 uM measured after 3 days by 3-(4,5-dimethylthiazol-2-yl)-2,5-diphenyltetrazolium bromide assay; format: functional, cell-based; conditions: time 3.0 day
[17] = biological target: Epidermal growth factor receptor (Homo sapiens, UniProt P00533); assay: Inhibition of glutathione S-transferase fused EGFR (unknown origin) catalytic activity infected in Sf9 cells using poly-Glu-Tyr (4:1) as substrate
BaF3 [18] = assay: Induction of cell cycle arrest in mouse BaF3 cells transfected with TPR-MET genes assessed as cells accumulation at G1 phase at 0.2 uM by fluorescence-activated cell sorter analysis (reference value: 42.4%); format: functional
NCI-H345 = assay: Growth inhibition of human NCI-H345 cells in presence of HGF measured after 72 hrs by 3-(4,5 dimethylthiazol-2-yl)-2,5-diphenyltetrazolium bromide assay; format: functional, cell-based
BaF3 [19] = assay: Induction of apoptosis in mouse BaF3 cells transfected with TPR-MET genes assessed as early apoptotic cells at 1 uM measured after 18 hrs by annexin V and propidium iodide staining based flow cytometry assay (reference value: 2.5%); format: functional
BaF3 [20] = assay: Inhibition of cell growth in mouse BaF3 cells transfected with TPR-MET genes at 1 uM measured after 3 days by 3-(4,5-dimethylthiazol-2-yl)-2,5-diphenyltetrazolium bromide assay; format: functional; conditions: BaF3, 72 h, time 3 day
[21] = biological target: T2, Hepatocyte growth factor receptor (Homo sapiens, UniProt P08581); assay: Inhibition of glutathione S-transferase fused Met (unknown origin) catalytic activity infected in Sf9 cells using poly-Glu-Tyr (4:1) as substrate
BaF3 [22] = assay: Induction of cell cycle arrest in mouse BaF3 cells transfected with TPR-MET genes assessed as cells accumulation at G2/M phase at 1 uM by fluorescence-activated cell sorter analysis (reference value: 12.2%); format: functional
BaF3 [23] = assay: Induction of apoptosis in mouse BaF3 cells transfected with TPR-MET genes assessed as late apoptotic cells at 1 uM measured after 18 hrs by annexin V and propidium iodide staining based flow cytometry assay (reference value: 3.8%); format: functional
BaF3 [24] = assay: Induction of cell cycle arrest in mouse BaF3 cells transfected with TPR-MET genes assessed as cells accumulation at G1 phase at 1 uM by fluorescence-activated cell sorter analysis (reference value: 42.4%); format: functional
BaF3 [25] = assay: Inhibition of cell growth in mouse BaF3 cells transfected with TPR-MET genes at 0.01 to 10 uM by 3-(4,5-dimethylthiazol-2-yl)-2,5-diphenyltetrazolium bromide assay; format: functional, cell-based; conditions: dose 0.01-10 µM
BaF3 [26] = assay: Inhibition of Serine phosphorylation of GSK3beta at Ser21/9 in mouse BaF3 cells transfected with TPR-MET genes at 0.2 to 5 uM by immunoblotting analysis; format: cell-based; conditions: dose 0.2-5 µM
[27] = biological target: Hepatocyte growth factor receptor (Mus musculus) (UniProt P16056); assay: Inhibition of Met autophosphorylation at Tyr480 in mouse BaF3 cells at 5 uM by immunoblotting analysis; format: cell-based
BaF3 [28] = assay: Induction of cell cycle arrest in mouse BaF3 cells transfected with TPR-MET genes assessed as cells accumulation at G2/M phase at 5 uM by fluorescence-activated cell sorter analysis (reference value: 12.2%); format: functional
[29] = biological target: Vascular endothelial growth factor receptor 2 (Homo sapiens, UniProt P35968); assay: Inhibition of glutathione S-transferase fused Flk1 (unknown origin) catalytic activity infected in Sf9 cells using poly-Glu-Tyr (4:1) as substrate
BaF3 [30] = assay: Induction of apoptosis in mouse BaF3 cells transfected with TPR-MET genes assessed as viable cells at 1 uM measured after 18 hrs by annexin V and propidium iodide staining based flow cytometry assay (reference value: 93.6%); format: functional; conditions: read-out: Activity
BaF3 [31] = assay: Inhibition of cell growth in mouse BaF3 cells transfected with BCR-ABL genes at 1 uM measured after 18 hrs by 3-(4,5-dimethylthiazol-2-yl)-2,5-diphenyltetrazolium bromide assay; format: functional, cell-based
BaF3 [32] = assay: Inhibition of migration of mouse BaF3 cells measured after 4 hrs by spontaneous transwell migration assay; format: functional, cell-based; conditions: dose 0.2-5 µM
BaF3 [33] = assay: Induction of apoptosis in mouse BaF3 cells transfected with TPR-MET genes assessed as necrotic cells at 1 uM measured after 18 hrs by annexin V and propidium iodide staining based flow cytometry assay (reference value: 0.1%); format: functional
BaF3 [34] = assay: Inhibition of cell growth in mouse BaF3 cells transfected with TEL-ABL genes at 1 uM measured after 18 hrs by 3-(4,5-dimethylthiazol-2-yl)-2,5-diphenyltetrazolium bromide assay; format: functional, cell-based
BaF3 [35] = assay: Inhibition of cell growth in mouse BaF3 cells in presence of interleukin 3 at 1 uM measured after 3 days by 3-(4,5-dimethylthiazol-2-yl)-2,5-diphenyltetrazolium bromide assay; format: functional, cell-based; conditions: time 3.0 day
[36] = biological target: T2, Hepatocyte growth factor receptor; assay: Inhibition of HGF-dependent Met (unknown origin) phosphorylation
BaF3 [37] = assay: Inhibition of Serine phosphorylation of FKHR at Ser256 in mouse BaF3 cells transfected with TPR-MET genes at 0.2 to 5 uM by immunoblotting analysis; format: cell-based; conditions: dose 0.2-5 µM
BaF3 [38] = assay: Induction of cell cycle arrest in mouse BaF3 cells transfected with TPR-MET genes assessed as cells accumulation at G1 phase at 5 uM by fluorescence-activated cell sorter analysis (reference value: 42.4%); format: functional
[39] = biological target: Cyclin-dependent kinase 2 (Homo sapiens, UniProt P24941); assay: Inhibition of glutathione S-transferase fused CDK2 (unknown origin) catalytic activity infected in Sf9 cells using poly-Glu-Tyr (4:1) as substrate
BaF3 [40] = assay: Inhibition of cell growth in mouse BaF3 cells transfected with BCR-ABL genes in presence of interleukin 3 at 1 uM measured after 18 hrs by 3-(4,5-dimethylthiazol-2-yl)-2,5-diphenyltetrazolium bromide assay; format: functional, cell-based
BaF3 [41] = assay: Inhibition of cell growth in mouse BaF3 cells transfected with TPR-MET genes in presence of interleukin 3 at 1 uM by 3-(4,5-dimethylthiazol-2-yl)-2,5-diphenyltetrazolium bromide assay; format: functional, cell-based
BaF3 [42] = assay: Induction of cell cycle arrest in mouse BaF3 cells transfected with TPR-MET genes assessed as cells accumulation at G2/M phase at 0.2 uM by fluorescence-activated cell sorter analysis (reference value: 12.2%); format: functional
BaF3 [43] = assay: Induction of cell cycle arrest in mouse BaF3 cells transfected with TPR-MET genes assessed as cells accumulation at S phase at 5 uM by fluorescence-activated cell sorter analysis (reference value: 45.4%); format: functional
[44] = biological target: Hepatocyte growth factor receptor (Mus musculus) (UniProt P16056); assay: Inhibition of Met autophosphorylation at Tyr361/365/366 in mouse BaF3 cells at 5 uM by immunoblotting analysis; format: cell-based
[45] = biological target: Proto-oncogene tyrosine-protein kinase Src (Homo sapiens, UniProt P12931); assay: Inhibition of glutathione S-transferase fused c-Src (unknown origin) catalytic activity infected in Sf9 cells using poly-Glu-Tyr (4:1) as substrate
BaF3 [46] = assay: Induction of cell cycle arrest in mouse BaF3 cells transfected with TPR-MET genes assessed as cells accumulation at S phase at 1 uM by fluorescence-activated cell sorter analysis (reference value: 45.4%); format: functional

Chain of Hepatocyte growth factor receptor (Mus musculus) (P16056 whole entry, the tested form may be a part): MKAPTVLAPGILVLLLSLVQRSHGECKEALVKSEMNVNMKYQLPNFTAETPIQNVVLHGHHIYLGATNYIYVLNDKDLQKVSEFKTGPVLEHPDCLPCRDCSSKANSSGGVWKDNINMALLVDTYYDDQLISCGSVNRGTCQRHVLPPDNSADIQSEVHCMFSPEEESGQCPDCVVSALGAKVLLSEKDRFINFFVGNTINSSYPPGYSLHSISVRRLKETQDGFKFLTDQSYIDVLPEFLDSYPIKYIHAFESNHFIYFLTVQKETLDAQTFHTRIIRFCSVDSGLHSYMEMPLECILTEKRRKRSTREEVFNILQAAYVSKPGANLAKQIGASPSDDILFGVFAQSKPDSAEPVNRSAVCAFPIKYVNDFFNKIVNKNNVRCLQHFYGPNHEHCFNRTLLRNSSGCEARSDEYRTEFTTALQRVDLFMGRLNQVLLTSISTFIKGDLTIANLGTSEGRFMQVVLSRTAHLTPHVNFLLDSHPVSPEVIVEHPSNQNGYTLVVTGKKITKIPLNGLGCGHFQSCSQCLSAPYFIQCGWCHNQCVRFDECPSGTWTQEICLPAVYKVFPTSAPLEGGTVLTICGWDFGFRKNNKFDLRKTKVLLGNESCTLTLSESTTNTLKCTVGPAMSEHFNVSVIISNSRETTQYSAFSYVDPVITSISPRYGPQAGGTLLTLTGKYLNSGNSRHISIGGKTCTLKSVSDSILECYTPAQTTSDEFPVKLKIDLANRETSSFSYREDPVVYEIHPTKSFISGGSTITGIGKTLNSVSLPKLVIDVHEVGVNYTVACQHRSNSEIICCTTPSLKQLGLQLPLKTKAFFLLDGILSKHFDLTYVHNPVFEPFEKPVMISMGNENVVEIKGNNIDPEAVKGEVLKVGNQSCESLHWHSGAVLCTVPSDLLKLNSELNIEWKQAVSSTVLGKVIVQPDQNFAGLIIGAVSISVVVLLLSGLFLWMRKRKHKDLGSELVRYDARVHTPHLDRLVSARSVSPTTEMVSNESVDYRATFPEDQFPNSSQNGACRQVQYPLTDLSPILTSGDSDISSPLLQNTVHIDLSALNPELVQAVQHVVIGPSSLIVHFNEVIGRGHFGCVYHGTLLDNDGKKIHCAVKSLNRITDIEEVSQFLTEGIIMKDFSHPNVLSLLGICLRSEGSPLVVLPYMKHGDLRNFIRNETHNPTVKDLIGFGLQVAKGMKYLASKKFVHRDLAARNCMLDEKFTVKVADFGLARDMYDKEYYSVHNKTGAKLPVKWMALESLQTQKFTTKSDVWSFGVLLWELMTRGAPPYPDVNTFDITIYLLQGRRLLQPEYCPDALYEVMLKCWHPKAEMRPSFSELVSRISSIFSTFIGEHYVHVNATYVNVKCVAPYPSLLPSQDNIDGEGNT
T2 sequence (P08581 whole entry, the tested form may be a part): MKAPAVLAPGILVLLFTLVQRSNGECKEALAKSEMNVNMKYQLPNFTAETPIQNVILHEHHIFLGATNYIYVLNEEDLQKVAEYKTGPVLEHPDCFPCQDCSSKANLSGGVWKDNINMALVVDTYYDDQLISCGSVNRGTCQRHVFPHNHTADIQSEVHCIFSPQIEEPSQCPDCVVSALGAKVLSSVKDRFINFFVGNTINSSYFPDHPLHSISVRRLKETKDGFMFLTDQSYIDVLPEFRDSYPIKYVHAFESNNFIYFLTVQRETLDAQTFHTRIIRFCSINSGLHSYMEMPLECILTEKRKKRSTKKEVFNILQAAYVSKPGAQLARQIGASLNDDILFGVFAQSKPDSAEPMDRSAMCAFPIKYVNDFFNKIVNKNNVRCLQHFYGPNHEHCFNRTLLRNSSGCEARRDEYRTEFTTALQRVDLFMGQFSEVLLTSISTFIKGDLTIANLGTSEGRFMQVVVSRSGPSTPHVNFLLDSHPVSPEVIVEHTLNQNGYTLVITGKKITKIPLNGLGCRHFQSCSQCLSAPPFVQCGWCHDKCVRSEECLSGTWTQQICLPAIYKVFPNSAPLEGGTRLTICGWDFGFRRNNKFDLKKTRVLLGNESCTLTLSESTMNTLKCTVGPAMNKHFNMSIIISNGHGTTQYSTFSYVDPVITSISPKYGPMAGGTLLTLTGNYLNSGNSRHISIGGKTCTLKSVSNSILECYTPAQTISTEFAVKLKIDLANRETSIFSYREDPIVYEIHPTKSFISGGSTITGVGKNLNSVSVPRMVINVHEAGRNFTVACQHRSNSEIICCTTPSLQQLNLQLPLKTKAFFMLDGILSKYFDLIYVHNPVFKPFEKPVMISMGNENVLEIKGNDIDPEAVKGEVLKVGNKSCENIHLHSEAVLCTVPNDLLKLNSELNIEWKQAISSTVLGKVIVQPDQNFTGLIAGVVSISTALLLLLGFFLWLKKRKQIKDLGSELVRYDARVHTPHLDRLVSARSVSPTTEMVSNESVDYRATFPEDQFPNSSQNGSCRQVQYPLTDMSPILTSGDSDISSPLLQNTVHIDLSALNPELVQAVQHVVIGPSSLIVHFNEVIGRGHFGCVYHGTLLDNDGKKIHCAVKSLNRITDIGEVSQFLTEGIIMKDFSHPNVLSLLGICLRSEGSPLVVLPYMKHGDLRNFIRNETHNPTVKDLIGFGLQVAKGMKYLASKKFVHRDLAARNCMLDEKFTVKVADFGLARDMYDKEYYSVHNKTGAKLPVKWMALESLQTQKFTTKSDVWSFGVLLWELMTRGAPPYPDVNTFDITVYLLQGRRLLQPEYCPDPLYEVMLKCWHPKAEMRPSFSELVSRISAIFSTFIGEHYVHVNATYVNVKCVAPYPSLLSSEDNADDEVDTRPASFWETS
Chain of Platelet-derived growth factor receptor beta (P09619 whole entry, the tested form may be a part): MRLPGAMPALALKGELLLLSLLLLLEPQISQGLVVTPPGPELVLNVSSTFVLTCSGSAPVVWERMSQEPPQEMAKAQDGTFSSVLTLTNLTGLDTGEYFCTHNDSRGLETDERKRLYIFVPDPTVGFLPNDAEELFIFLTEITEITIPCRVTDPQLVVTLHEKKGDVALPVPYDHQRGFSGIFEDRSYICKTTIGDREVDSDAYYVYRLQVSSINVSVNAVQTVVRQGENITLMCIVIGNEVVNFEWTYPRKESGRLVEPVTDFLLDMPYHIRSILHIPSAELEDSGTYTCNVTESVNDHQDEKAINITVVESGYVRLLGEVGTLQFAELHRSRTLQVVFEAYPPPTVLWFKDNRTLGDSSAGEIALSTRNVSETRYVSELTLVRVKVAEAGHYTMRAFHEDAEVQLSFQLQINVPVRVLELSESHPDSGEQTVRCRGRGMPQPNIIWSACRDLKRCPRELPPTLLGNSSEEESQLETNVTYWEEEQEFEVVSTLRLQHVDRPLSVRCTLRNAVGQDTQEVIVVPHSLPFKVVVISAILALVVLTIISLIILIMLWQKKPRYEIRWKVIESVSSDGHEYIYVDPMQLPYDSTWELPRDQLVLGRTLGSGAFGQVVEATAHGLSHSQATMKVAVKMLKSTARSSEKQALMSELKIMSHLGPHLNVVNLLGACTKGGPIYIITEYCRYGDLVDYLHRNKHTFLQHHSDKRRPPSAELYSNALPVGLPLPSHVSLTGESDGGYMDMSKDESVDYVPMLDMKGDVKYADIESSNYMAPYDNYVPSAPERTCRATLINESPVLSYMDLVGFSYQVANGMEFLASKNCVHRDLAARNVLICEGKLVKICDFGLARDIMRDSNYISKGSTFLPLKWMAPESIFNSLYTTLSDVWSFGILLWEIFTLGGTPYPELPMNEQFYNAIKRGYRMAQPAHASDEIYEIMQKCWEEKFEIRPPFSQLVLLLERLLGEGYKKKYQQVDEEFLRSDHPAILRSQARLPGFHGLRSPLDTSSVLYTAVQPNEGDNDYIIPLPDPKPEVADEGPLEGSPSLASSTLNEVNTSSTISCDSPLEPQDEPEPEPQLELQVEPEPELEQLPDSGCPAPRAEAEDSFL

Cc1[nH]c(/C=C2/C(=O)Nc3ccc(S(=O)(=O)N(C)c4cccc(Cl)c4)cc32)c(C)c1C(=O)N1CCN(C)CC1
inhibition (BaF3 [1]): inactive
IC50 [2]: 9.7 µM
inhibition (NCI-H69): Dose-Dependent Effect
inhibition [3]: 2%
inhibition (BaF3 [4]): Dose-Dependent Effect
inhibition (BaF3 [5]): Active
Activity (BaF3 [6]): 40%
inhibition (BaF3 [7]): inactive
inhibition (BaF3 [8]): inactive
inhibition [9]: Active
IC50 [10]: > 20 µM
inhibition (BaF3 [11]): Active
inhibition at 5 µM (BaF3 [12]): 80%
Activity (BaF3 [13]): 24%
IC50 (Angiopoietin-1 receptor): > 100 µM
IC50 (BaF3 [14]): < 3 µM
inhibition at 1 µM (BaF3 [15]): 44.8%
inhibition (BaF3 [16]): inactive
IC50 [17]: > 100 µM
Activity (BaF3 [18]): 46.6%
inhibition (NCI-H345): Dose-Dependent Effect
Activity (BaF3 [19]): 11.3%
inhibition at 1 µM (BaF3 [20]): 100%
IC50 [21]: 0.02 µM
Activity (BaF3 [22]): 6%
Activity (BaF3 [23]): 17.2%
Activity (BaF3 [24]): 40%
inhibition (BaF3 [25]): Dose-Dependent Effect
inhibition (BaF3 [26]): Active
inhibition [27]: Active
Activity (BaF3 [28]): 8.3%
IC50 [29]: 1.3 µM
viability at 1 µM (BaF3 [30]): 70.3%
inhibition (BaF3 [31]): inactive
inhibition (BaF3 [32]): Dose-Dependent Effect
Activity (BaF3 [33]): 1.1%
inhibition (BaF3 [34]): inactive
inhibition (BaF3 [35]): inactive
IC50 [36]: 1 µM
inhibition (BaF3 [37]): Active
Activity (BaF3 [38]): 13.4%
IC50 [39]: > 10 µM
inhibition (BaF3 [40]): inactive
inhibition (BaF3 [41]): Active
Activity (BaF3 [42]): 13.4%
Activity (BaF3 [43]): 21.1%
inhibition [44]: Active
IC50 [45]: > 10 µM
Activity (BaF3 [46]): 29.8%
